Experimental data as given in patent publication US20180250280A1 (BAYER PHARMA AKTIENGESELLSCHAFT, priority 2015, published 2018).
pIC50: −log10 of the molar value.

Columns and labels:
human factor XIa = biological target: T1, human factor XIa (Homo sapiens, UniProt P03951); assay: Measurement of FXIa inhibition (fluorogenic peptide substrate, AMC cleavage); assay type: biochemical; conditions: factor XIa from Kordia 0.45 nM; substrate Boc-Glu(OBzl)-Ala-Arg-AMC 10 μM; 30 min at 22° C.; in some cases averages from multiple determinations
T1 construct: purchased Kordia
Protocol: (§1) The factor XIa inhibition of the substances according to the invention is determined using a biochemical test system which utilizes the reaction of a peptidic factor XIa substrate to determine the enzymatic activity of human factor XIa. Here, factor XIa cleaves from the peptic factor XIa substrate the C-terminal aminomethylcoumarin (AMC), the fluorescence of which is measured. The determinations are conducted in microtitre plates.
Test substances are dissolved in dimethyl sulfoxide and serially diluted in dimethyl sulfoxide (3000 μM to 0.0078 μM; resulting final concentrations in the test: 50 μM to 0.00013 μM). 1 μl of the diluted substance solutions is placed into each of the wells of white microtitre plates from Greiner (384 wells). 20 μl of assay buffer (50 mM of Tris/HCl pH 7.4; 100 mM of sodium chloride; 5 mM of calcium chloride; 0.1% of bovine serum albumin) and 20 μl of factor XIa from Kordia (0.45 nM in assay buffer) are then added successively. After 15 min of incubation, the enzyme reaction is started by addition of 20 μl of the factor XIa substrate Boc-Glu(OBzl)-Ala-Arg-AMC dissolved in assay buffer (10 μM in assay buffer) from Bachem, the mixture is incubated at room temperature (22° C.) for 30 min and fluorescence is then measured (excitation: 360 nm, emission: 460 nm). The measured emissions of the test batches with test substance are compared to those of control batches without test substance (only dimethyl sulfoxide instead of test substance in dimethyl sulfoxide), and IC50 values are calculated from the concentration/activity relationships. Activity data from this test are given in Table A below (in some cases as averages from multiple individual determinations): […]

human plasma kallikrein = biological target: T2, human plasma kallikrein (Homo sapiens, UniProt P03952); assay: Determination of the plasma kallikrein activity (fluorogenic peptide substrate, AMC cleavage); assay type: biochemical; conditions: plasma kallikrein from Kordia 0.6 nM; substrate H-Pro-Phe-Arg-AMC 10 μM; 30 min at 22° C.; in some cases averages from multiple determinations
T2 construct: purchased Kordia
Protocol: as §1, with “To determine the plasma kallikrein” for “The factor XIa”, “invention,” for “invention is determined using”, “system is used” for “system”, “plasma kallikrein” for “factor XIa”, “plasma kallikrein.” for “factor XIa.”
Test substances are dissolved in dimethyl sulfoxide and serially diluted in dimethyl sulfoxide (3000 μM to 0.0078 μM; resulting final concentrations in the test: 50 μM to 0.00013 μM). 1 μl of the diluted substance solutions is placed into each of the wells of white microtitre plates from Greiner (384 wells). 20 μl of assay buffer (50 mM Tris/HCl pH 7.4; 100 mM sodium chloride solution; 5 mM calcium chloride solution; 0.1% of bovine serum albumin) and 20 μl of plasma kallikrein from Kordia (0.6 nM in assay buffer) are then added successively. After 15 min of incubation, the enzyme reaction is started by addition of 20 μl of the substrate H-Pro-Phe-Arg-AMC dissolved in assay buffer (10 μM in assay buffer) from Bachem, the mixture is incubated at room temperature (22° C.) for 30 min and fluorescence is then measured (excitation: 360 nm, emission: 460 nm). The measured emissions of the test batches with test substance are compared to those of control batches without test substance (only dimethyl sulfoxide instead of test substance in dimethyl sulfoxide), and IC50 values are calculated from the concentration/activity relationships. Activity data from this test are given in Table B below (in some cases as averages from multiple individual determinations): […]

T1 sequence (P03951 388-625 limits assumed): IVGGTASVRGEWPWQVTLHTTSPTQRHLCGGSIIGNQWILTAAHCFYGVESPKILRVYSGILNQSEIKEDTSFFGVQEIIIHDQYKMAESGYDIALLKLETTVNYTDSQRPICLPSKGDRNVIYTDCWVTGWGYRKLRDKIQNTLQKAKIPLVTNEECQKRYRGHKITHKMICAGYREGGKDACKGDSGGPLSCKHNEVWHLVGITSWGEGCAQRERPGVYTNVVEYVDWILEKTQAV
T1 sequence (P03951 19-387 partner limits assumed): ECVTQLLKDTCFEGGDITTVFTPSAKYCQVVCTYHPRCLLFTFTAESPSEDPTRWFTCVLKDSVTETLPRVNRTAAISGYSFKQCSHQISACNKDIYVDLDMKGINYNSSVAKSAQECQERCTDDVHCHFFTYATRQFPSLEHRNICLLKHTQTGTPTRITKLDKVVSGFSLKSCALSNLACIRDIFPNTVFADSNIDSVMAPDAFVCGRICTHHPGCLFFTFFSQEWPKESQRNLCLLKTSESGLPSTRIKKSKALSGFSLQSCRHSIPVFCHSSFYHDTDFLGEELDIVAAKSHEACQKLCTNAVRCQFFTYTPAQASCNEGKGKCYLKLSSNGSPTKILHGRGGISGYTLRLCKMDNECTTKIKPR
T2 sequence (P03952 391-638 limits assumed): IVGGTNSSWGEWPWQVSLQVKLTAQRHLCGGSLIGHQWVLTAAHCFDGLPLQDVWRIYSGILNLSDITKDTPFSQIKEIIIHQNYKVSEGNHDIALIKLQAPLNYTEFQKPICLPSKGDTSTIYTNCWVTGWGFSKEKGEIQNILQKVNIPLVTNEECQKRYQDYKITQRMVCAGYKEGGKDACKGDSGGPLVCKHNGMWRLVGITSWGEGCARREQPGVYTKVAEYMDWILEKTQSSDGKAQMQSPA
T2 sequence (P03952 20-390 partner limits assumed): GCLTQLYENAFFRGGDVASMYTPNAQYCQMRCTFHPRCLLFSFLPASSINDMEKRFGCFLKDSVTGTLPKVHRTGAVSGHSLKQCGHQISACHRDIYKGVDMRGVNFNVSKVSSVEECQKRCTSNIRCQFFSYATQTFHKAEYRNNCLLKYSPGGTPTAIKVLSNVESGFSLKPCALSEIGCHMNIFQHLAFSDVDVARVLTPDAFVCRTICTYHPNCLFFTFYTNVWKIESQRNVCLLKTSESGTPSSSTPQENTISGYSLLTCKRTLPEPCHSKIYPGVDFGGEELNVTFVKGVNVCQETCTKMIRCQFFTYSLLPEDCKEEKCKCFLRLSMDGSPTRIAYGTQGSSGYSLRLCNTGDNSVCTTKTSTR

| SMILES | pIC50 (human factor XIa) | pIC50 (human plasma kallikrein) |
| --- | --- | --- |
| COc1cn(C(CC2COCCO2)C(=O)Nc2ccc(C(N)=O)c(F)c2)c(=O)cc1-c1cc(Cl)ccc1OCCF (centres unmarked) [Example 47, 4-{[2-{4-[5-Chloro-2-(2-fluoroethoxy)phenyl]-5-methoxy-2-oxopyridin-1(2H)-yl}-3-(1,4-dioxan-2-yl)propanoyl]amino}-2-fluorobenzamide] | 7.54 | 6.51 |
| COc1cn(C(CCOC(C)(C)C)C(=O)Nc2ccc(C(N)=O)c(F)c2)c(=O)cc1-c1cc(Cl)ccc1OCC(F)(F)F (racemic) [Example 10, 4-[(4-tert-Butoxy-2-{4-[5-chloro-2-(2,2,2-trifluoroethoxy)phenyl]-5-methoxy-2-oxopyridin-1(2H)-yl}butanoyl)amino]-2-fluorobenzamide] | 7.82 | 7.11 |
| COc1cn(C(C[C@H]2CCCCO2)C(=O)Nc2ccc(C(N)=O)c(F)c2)c(=O)cc1-c1cc(Cl)ccc1OCC(F)(F)F (stereo partly drawn) [Example 23, 4-[(2-{4-[5-Chloro-2-(2,2,2-trifluoroethoxy)phenyl]-5-methoxy-2-oxopyridin-1(2H)-yl}-3-[(2R)-tetrahydro-2H-pyran-2-yl]propanoyl)amino]-2-fluorobenzamide] | 7.47 | 6.47 |
| CCCC(C(=O)Nc1ccc(C(=O)NC)nc1)n1cc(OC)c(-c2cc(Cl)ccc2OCC(F)(F)F)cc1=O (racemic) [Example 66, 5-{[2-{4-[5-Chloro-2-(2,2,2-trifluoroethoxy)phenyl]-5-methoxy-2-oxopyridin-1(2H)-yl}pentanoyl]amino}-N-methylpyridine-2-carboxamide] | 7.44 | 6.74 |
| CCCC(C(=O)Nc1ccc(C(N)=O)nc1)n1cc(OC)c(-c2cc(Cl)ccc2OCC(F)(F)F)cc1=O (racemic) [Example 68, 5-{[2-{4-[5-Chloro-2-(2,2,2-trifluoroethoxy)phenyl]-5-methoxy-2-oxopyridin-1(2H)-yl}pentanoyl]amino}pyridine-2-carboxamide] | 7.43 | 6.60 |
| CCCC(C(=O)Nc1ccc2nn(C)cc2c1)n1cc(OC)c(-c2cc(Cl)ccc2OCC(F)(F)F)cc1=O (racemic) [Example 65, 2-{4-[5-Chloro-2-(2,2,2-trifluoroethoxy)phenyl]-5-methoxy-2-oxopyridin-1(2H)-yl}-N-(2-methyl-2H-indazol-5-yl)pentanamide] | 7.40 | 6.85 |
| COc1cn(C(CCOC(C)(C)C)C(=O)Nc2ccc(C(N)=O)nc2)c(=O)cc1-c1cc(Cl)ccc1OCC(F)F (racemic) [Example 27, 5-[(4-tert-Butoxy-2-{4-[5-chloro-2-(2,2-difluoroethoxy)phenyl]-5-methoxy-2-oxopyridin-1(2H)-yl}butanoyl)amino]pyridine-2-carboxamide] | 7.74 | 7.02 |
| COc1cn(C(CCOC2(C)CCC2)C(=O)Nc2ccc3nn(C)cc3c2)c(=O)cc1-c1cc(Cl)ccc1OCC(F)(F)F (racemic) [Example 58, 2-[4-[5-Chloro-2-(2,2,2-trifluoroethoxy)phenyl]-5-methoxy-2-oxo-1-pyridyl]-4-(1-methylcyclobutoxy)-N-(2-methylindazol-5-yl)butanamide] | 7.85 | 7.24 |
| COc1cn(C(CCOC2(C)CCC2)C(=O)Nc2ccc(C(N)=O)nc2)c(=O)cc1-c1cc(Cl)ccc1OCC(F)(F)F (racemic) [Example 60, 5-[[2-[4-[5-Chloro-2-(2,2,2-trifluoroethoxy)phenyl]-5-methoxy-2-oxo-1-pyridyl]-4-(1-methylcyclobutoxy)butanoyl]amino]pyridine-2-carboxamide] | 7.77 | 7.08 |
| COc1cn(C(Cc2ccn(C)n2)C(=O)Nc2ccc(C(N)=O)c(F)c2)c(=O)cc1-c1cc(Cl)ccc1OCC(F)(F)F (racemic) [Example 16, 4-{[2-{4-[5-Chloro-2-(2,2,2-trifluoroethoxy)phenyl]-5-methoxy-2-oxopyridin-1 (2H)-yl}-3-(1-methyl-1H-pyrazol-3-yl)propanoyl]amino}-2-fluorobenzamide] | 8.00 | 7.17 |
| COc1cn(C(CCOC(F)(F)F)C(=O)Nc2ccc(C(N)=O)c(F)c2)c(=O)cc1-c1cc(Cl)ccc1OCC(F)(F)F (racemic) [Example 42, 4-{[2-{4-[5-Chloro-2-(2,2,2-trifluoroethoxy)phenyl]-5-methoxy-2-oxopyridin-1(2H)-yl}-4-(trifluoromethoxy)butanoyl]amino}-2-fluorobenzamide] | 7.54 | 6.72 |
| CNC(=O)c1ccc(NC(=O)C(CCOC)n2cc(OC)c(-c3cc(Cl)ccc3OCC(F)(F)F)cc2=O)cc1F (racemic) [Example 6, 4-[(2-{4-[5-Chloro-2-(2,2,2-trifluoroethoxy)phenyl]-5-methoxy-2-oxopyridin-1(2H)-yl}-4-methoxybutanoyl)amino]-2-fluoro-N-methylbenzamide] | 7.72 | 6.89 |

Stronger by pIC50 (human factor XIa), values ahead:

| pIC50 (human factor XIa) | pIC50 (human plasma kallikrein) | SMILES |
| --- | --- | --- |
| 8.01 | 6.80 | COc1cn(C(CC2COCCO2)C(=O)Nc2ccc(C(N)=O)c(F)c2)c(=O)cc1-c1cc(Cl)ccc1OCC(F)F (centres unmarked) [Example 32, 4-{[2-{4-[5-Chloro-2-(2,2-difluoroethoxy)phenyl]-5-methoxy-2-oxopyridin-1(2H)-yl}-3-(1,4-dioxan-2-yl)propanoyl]amino}-2-fluorobenzamide] |
| 9.05 | 7.48 | COc1cn(C(C[C@@H]2CCCCO2)C(=O)Nc2ccc(C(=O)O)cc2)c(=O)cc1-c1cc(Cl)ccc1OCC(F)(F)F (stereo partly drawn) [Example 49, 4-[(2-{4-[5-Chloro-2-(2,2,2-trifluoroethoxy)phenyl]-5-methoxy-2-oxopyridin-1(2H)-yl}-3-[(2S)-tetrahydro-2H-pyran-2-yl]propanoyl)amino]benzoic acid] |
| 8.39 | 7.48 | COCCC(C(=O)Nc1ccc2nn(C)cc2c1)n1cc(OC)c(-c2cc(Cl)ccc2OCC(F)(F)F)cc1=O (racemic) [Example 5, 2-{4-[5-Chloro-2-(2,2,2-trifluoroethoxy)phenyl]-5-methoxy-2-oxopyridin-1(2H)-yl}-4-methoxy-N-(2-methyl-2H-indazol-5-yl)butanamide] |
| 8.19 | 7.46 | CNC(=O)c1ccc(NC(=O)C(Cc2ccn(C)n2)n2cc(OC)c(-c3cc(Cl)ccc3OCC(F)(F)F)cc2=O)cn1 (racemic) [Example 15, 5-{[2-{4-[5-Chloro-2-(2,2,2-trifluoroethoxy)phenyl]-5-methoxy-2-oxopyridin-1(2H)-yl}-3-(1-methyl-1H-pyrazol-3-yl)propanoyl]amino}-N-methylpyridine-2-carboxamide] |
| 9.02 | 8.03 | COc1cn(C(Cc2ccn(C)n2)C(=O)Nc2ccc(C(=O)O)cc2)c(=O)cc1-c1cc(Cl)ccc1OCC(F)(F)F (single isomer, unassigned) [Example 43, 4-{[2-{4-[5-Chloro-2-(2,2,2-trifluoroethoxy)phenyl]-5-methoxy-2-oxopyridin-1(2H)-yl}-3-(1-methyl-1H-pyrazol-3-yl)propanoyl]amino}benzoic acid] |
| 8.03 | 7.35 | COc1cn(C(Cc2ccn(C)n2)C(=O)Nc2ccc3nn(C)cc3c2)c(=O)cc1-c1cc(Cl)ccc1OCC(F)(F)F (racemic) [Example 14, 2-{4-[5-Chloro-2-(2,2,2-trifluoroethoxy)phenyl]-5-methoxy-2-oxopyridin-1(2H)-yl}-N-(2-methyl-2H-indazol-5-yl)-3-(1-methyl-1H-pyrazol-3-yl)propanamide] |
| 8.74 | 7.49 | COc1cn(C(CCOC2(C)CCC2)C(=O)Nc2ccc(C(=O)O)cc2)c(=O)cc1-c1cc(Cl)ccc1OCC(F)(F)F (racemic) [Example 55, 4-[(2-{4-[5-Chloro-2-(2,2,2-trifluoroethoxy)phenyl]-5-methoxy-2-oxopyridin-1(2H)-yl}-4-[(1-methylcyclobutyl)oxy]butanoyl)amino]benzoic acid] |
